Experimental data published in patent publication US9809623B2, “α4β7 peptide monomer and dimer antagonists” (Protagonist Therapeutics, Inc., priority 2014, dated 2017).
Numbered stars: 1 amine (or outer) side, 2 acyl side, 3 side chain; on linkers, the order of the positions; unused ones are H or OH. Bridge positions count the residues as written; N and C are the ends. Square brackets hold non-standard residues; d marks the D form. Peptide text beside a SMILES is read from it. I, II: the chains in the order shown. 2Nal = N[C@@H](Cc1ccc2ccccc2c1)C(=O)O; Diglycolyl = O=C(COCC(=O)[*:2])[*:1]; NMeR = CN[C@@H](CCCNC(=N)N)C(=O)O; hPhe = N[C@@H](CCc1ccccc1)C(=O)O; Tic = O=C(O)[C@@H]1Cc2ccccc2CN1; Aic = NC1(C(=O)O)Cc2ccccc2C1; NMeK = CN[C@@H](CCCCN)C(=O)O; Pen = CC(C)(S)[C@H](N)C(=O)O; dNMeK = CN[C@H](CCCCN)C(=O)O

Experiments:
rh integrin α4β7 = molecular target: T1, rh integrin α4β7 (Homo sapiens, UniProt P13612+P26010); experiment: α4β7-MAdCAM Competition ELISA; assay type: binding; details: Table 3-B, Potency (α4β7); range classes; read-out: α4β7 ELISA IC50
T1 construct: purchased R&D Systems 5397-A30
T1 sequence (P13612 34-977 limits assumed): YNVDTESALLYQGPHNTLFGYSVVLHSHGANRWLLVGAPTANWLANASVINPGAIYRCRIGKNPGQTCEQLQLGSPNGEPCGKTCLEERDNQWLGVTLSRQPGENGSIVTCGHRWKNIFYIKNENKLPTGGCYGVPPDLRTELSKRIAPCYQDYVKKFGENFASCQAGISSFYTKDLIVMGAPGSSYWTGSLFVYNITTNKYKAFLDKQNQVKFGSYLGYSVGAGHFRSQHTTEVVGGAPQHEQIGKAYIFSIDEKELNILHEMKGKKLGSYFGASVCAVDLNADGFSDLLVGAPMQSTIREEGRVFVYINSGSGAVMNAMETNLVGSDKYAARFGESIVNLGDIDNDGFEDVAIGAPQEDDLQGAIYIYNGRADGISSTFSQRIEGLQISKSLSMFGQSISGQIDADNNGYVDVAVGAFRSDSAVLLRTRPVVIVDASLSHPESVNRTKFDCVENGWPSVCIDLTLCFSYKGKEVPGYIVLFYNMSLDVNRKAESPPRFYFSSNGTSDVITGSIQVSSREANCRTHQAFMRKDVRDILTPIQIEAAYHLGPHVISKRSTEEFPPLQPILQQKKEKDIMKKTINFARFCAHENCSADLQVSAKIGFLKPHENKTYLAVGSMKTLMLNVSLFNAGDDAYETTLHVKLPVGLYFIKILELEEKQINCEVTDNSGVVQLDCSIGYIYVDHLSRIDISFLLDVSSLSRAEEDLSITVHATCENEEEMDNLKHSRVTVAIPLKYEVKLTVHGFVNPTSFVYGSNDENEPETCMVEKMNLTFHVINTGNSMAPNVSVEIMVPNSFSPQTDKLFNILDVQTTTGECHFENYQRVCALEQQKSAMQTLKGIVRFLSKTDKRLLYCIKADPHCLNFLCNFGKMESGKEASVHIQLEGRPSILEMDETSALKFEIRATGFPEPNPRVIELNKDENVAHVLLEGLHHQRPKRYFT
T1 sequence (P26010 20-723 limits assumed): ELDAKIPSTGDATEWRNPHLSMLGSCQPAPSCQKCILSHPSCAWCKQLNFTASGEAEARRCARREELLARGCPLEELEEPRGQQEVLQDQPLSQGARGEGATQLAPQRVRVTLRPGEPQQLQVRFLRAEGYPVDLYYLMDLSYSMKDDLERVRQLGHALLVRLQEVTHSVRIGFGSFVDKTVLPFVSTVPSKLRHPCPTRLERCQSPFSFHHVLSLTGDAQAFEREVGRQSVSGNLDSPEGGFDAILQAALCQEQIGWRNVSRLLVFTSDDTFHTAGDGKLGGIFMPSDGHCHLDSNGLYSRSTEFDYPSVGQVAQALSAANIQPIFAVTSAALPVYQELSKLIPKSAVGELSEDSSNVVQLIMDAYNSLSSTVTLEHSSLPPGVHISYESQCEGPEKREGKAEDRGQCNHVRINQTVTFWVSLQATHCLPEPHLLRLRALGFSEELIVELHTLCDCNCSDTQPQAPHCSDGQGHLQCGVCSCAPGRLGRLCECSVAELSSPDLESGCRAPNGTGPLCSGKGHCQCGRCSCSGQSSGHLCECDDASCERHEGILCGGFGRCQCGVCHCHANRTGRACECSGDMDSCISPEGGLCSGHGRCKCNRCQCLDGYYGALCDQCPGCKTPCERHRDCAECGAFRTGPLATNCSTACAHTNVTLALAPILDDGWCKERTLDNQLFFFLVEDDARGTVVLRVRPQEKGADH
Description: A nickel coated plate (Pierce #15442) was coated with rh integrin α4β7 (R&D Systems #5397-A30) at 800 ng/well and incubated at room temperature with shaking for 1 hr. The solution was then removed by shaking and blocked with assay buffer (50 mM Tris-HCl pH7.6, 150 mM NaCl, 1 mM MnCl2 or MgCl2, 0.05% Tween-20 and 0.5% BSA) at 250 ul/well. The plate was then incubated at room temperature for 1 hr. Each well was washed 3 times with wash buffer (50 mM Tris-HCl pH7.6, 100 mM NaCl, 1 mM MnCl2 or MgCl2, 0.05% Tween-20). To each well was added 25 ul of a serial dilution (3-fold dilutions in assay buffer) of peptide starting at 20 μM. 25 ul of recombinant human MAdCAM-1 (R&D Systems #6056-MC) was then added to each well at a fixed concentration 20 nM. The final starting peptide concentration was 10 μM, and the final MAdCAM-1 concentration was 10 nM. The plates were then incubated at room temperature for 1 hr to reach binding equilibrium. The wells were then washed three times with wash buffer. 50 ul of mouse anti-human IgG1-HRP (Invitrogen # A10648) diluted in 1:2000 in assay buffer was then added to each well. The wells were incubated at room temperature for 45 min with shaking. The wells were then washed 3 times with wash buffer. 100 ul of 3,3′,5,5′-Tetramethylbenzidine (TMB) were then added to each well and closely observe during development time. The reaction was stopped with 2N H2SO4 and absorbance was read at 450 nm.
TMB is a chromogenic substrate suitable for use in ELISA procedures, which utilize horseradish peroxidase conjugates. This substrate produces a soluble end product that is blue in color and can be read spectrophotometrically at 370 or 655 nm. The reaction maybe stopped with 2 M H2S04, resulting in a yellow solution that is read at 450 nm. Each tablet contains 1 mg of TMB substrate. To prepare TMB Substrate Solution, dissolve one 3,3′,5,5′-tetramethylbenzidine tablet in 1 ml of DMSO and add to 9 ml of 0.05 M Phosphate-Citrate Buffer, pH 5.0. Add 2 μl of fresh 30% hydrogen peroxide (Product No. H 1009) per 10 ml of substrate buffer solution, immediately prior to use.

α4β7 = α4β7 (Homo sapiens, UniProt P13612+P26010); experiment: α4β7-MAdCAM Cell Adhesion Assay (RPMI 8866 human cells); assay type: cell-based; set-up: host or cells: RPMI 8866 human B lymphoblastoid cells; details: Table 3-B, Potency (α4β7); range classes; read-out: α4β7 cell (Hu) IC50
α4β7, sequence (P13612 34-1032): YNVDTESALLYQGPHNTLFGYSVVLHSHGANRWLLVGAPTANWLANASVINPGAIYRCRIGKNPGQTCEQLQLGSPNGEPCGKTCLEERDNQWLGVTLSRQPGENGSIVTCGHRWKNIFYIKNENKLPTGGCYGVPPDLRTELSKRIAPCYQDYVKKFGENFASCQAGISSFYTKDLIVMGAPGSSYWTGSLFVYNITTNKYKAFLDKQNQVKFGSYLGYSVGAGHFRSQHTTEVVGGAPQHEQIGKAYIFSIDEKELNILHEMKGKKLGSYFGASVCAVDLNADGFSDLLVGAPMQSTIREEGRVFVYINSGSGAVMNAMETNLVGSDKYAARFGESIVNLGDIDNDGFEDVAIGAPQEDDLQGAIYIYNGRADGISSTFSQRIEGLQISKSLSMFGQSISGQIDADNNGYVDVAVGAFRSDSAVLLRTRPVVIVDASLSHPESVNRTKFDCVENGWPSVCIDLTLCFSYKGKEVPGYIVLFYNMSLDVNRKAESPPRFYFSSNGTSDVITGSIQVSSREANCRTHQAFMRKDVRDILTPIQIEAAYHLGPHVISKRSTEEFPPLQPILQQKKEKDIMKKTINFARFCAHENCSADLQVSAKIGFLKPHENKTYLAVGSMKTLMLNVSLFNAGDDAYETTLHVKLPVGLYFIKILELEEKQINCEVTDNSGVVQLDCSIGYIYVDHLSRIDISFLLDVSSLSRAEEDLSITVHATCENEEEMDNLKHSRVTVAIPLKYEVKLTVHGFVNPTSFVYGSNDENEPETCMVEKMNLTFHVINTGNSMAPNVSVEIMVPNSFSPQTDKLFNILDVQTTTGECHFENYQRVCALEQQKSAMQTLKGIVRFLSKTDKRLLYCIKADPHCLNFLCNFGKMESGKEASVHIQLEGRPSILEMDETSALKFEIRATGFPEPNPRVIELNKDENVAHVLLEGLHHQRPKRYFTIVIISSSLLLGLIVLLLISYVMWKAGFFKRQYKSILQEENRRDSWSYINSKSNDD
α4β7, sequence (P26010 20-798): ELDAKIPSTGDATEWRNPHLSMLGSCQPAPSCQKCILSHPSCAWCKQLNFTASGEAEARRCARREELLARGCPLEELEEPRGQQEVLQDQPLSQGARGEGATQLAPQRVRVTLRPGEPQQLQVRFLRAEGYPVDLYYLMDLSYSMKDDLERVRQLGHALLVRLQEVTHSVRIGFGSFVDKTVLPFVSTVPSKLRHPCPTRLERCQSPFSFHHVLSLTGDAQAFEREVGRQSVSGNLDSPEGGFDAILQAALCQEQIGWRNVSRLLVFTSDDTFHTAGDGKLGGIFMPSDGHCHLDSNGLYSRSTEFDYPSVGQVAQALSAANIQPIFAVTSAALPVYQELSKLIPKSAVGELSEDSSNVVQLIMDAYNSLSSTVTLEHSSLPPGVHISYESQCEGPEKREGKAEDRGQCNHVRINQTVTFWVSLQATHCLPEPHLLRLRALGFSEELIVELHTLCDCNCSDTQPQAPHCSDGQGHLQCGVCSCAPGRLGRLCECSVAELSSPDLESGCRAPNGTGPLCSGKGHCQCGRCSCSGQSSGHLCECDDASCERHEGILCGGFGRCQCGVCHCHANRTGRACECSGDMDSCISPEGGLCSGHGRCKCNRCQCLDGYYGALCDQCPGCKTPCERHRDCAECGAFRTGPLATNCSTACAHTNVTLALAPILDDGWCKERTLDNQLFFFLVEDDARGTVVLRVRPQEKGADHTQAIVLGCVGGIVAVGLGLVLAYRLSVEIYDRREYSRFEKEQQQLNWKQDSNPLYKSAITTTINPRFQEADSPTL
Procedure, shortened: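 Washed RPMI 8866 cells (200,000/well) in DMEM with 0.1% BSA, 10 mM HEPES pH 7, 1 mM MnCl2 adhered to rh MAdCAM-1/Fc-coated wells with serially diluted peptides, 30-45 min at 37 °C. After three washes, bound cells quantified by MTT, A570, cell-free background subtracted for dose response.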

[1] = Simulated Intestinal Fluid (SIF) Stability Assay; assay type: in vitro ADME, porcine; details: pig, simulated intestinal fluid (SIF) with 1% porcine pancreatin, pH 6.5, Table 3-B; > means experiment was stopped at that time and half life was not reached; read-out: Stabilty SIF t1/2
Procedure, shortened: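 Peptides (22 μM final) incubated at 37 °C in FASSIF (pH 6.5) with 1% porcine pancreatin; aliquots quenched at various times and analyzed by LC-MS/MS against internal standard. Half-life from first-order exponential decay fit of percent remaining.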

`CC(=O)N[C@@H]1C(=O)N(C)[C@@H](CCCNC(=N)N)C(=O)N[C@@H](CO)C(=O)N[C@@H](CC(=O)O)C(=O)N[C@@H]([C@@H](C)O)C(=O)N[C@@H](CC(C)C)C(=O)N[C@H](C(=O)N[C@@H](Cc2ccc3ccccc3c2)C(=O)N[C@H](CCC(=O)O)C(=O)N[C@H](CCCCN)C(N)=O)C(C)(C)SSC1(C)C` [compound 9] (Ac-[Pen][NMeR]SDTL[Pen][2Nal][dE][dK]-NH2; disulfide 1-7) gave an IC50 (rh integrin α4β7) of 10 to 25 nM and an IC50 (α4β7) of 100 to 500 nM.
`CC(=O)N[C@@H]1C(=O)N(C)[C@@H](CCCNC(=N)N)C(=O)N[C@@H](CO)C(=O)N[C@@H](CC(=O)O)C(=O)N[C@@H]([C@@H](C)O)C(=O)N[C@@H](CC(C)C)C(=O)N[C@H](C(=O)N[C@@H](Cc2ccc3ccccc3c2)C(=O)N[C@H](CCC(=O)O)C(=O)N(C)[C@H](CCCCN)C(N)=O)C(C)(C)SSC1(C)C` [compound 13] (Ac-[Pen][NMeR]SDTL[Pen][2Nal][dE][dNMeK]-NH2; disulfide 1-7) gave an IC50 (rh integrin α4β7) of 10 to 25 nM and an IC50 (α4β7) of 100 to 500 nM.
Compound `CC(=O)N[C@@H]1C(=O)N(C)[C@@H](CCCNC(=N)N)C(=O)N[C@@H](CO)C(=O)N[C@@H](CC(=O)O)C(=O)N[C@@H]([C@@H](C)O)C(=O)N[C@@H](CC(C)C)C(=O)N[C@H](C(=O)N[C@@H](CCc2ccccc2)C(=O)N[C@H](CCC(=O)O)C(=O)N[C@H](CCCCNC(=O)COCC(=O)NCCCC[C@@H](NC(=O)[C@@H](CCC(=O)O)NC(=O)[C@H](CCc2ccccc2)NC(=O)[C@H]2NC(=O)[C@H](CC(C)C)NC(=O)[C@H]([C@@H](C)O)NC(=O)[C@H](CC(=O)O)NC(=O)[C@H](CO)NC(=O)[C@H](CCCNC(=N)N)N(C)C(=O)[C@@H](NC(C)=O)C(C)(C)SSC2(C)C)C(N)=O)C(N)=O)C(C)(C)SSC1(C)C` [compound 40] (I: Ac-[Pen][NMeR]SDTL[Pen][hPhe][dE][dK]-NH2 / II: Ac-[Pen][NMeR]SDTL[Pen][hPhe][dE][dK]-NH2; disulfide I:1-I:7, II:1-II:7; linker I:10-II:10 via Diglycolyl) has an IC50 (rh integrin α4β7) of under 10 nM and an IC50 (α4β7) of 100 to 500 nM.
Compound `CC(=O)N[C@@H]1C(=O)N(C)[C@@H](CCCNC(=N)N)C(=O)N[C@@H](CO)C(=O)N[C@@H](CC(=O)O)C(=O)N[C@@H](CC(=O)O)C(=O)N[C@@H](CC(C)C)C(=O)N[C@H](C(=O)N[C@@H](Cc2c[nH]c3ccccc23)C(=O)N[C@@H](CCC(=O)O)C(=O)N[C@H](CCCCN)C(N)=O)C(C)(C)SSC1(C)C` [compound 46] (Ac-[Pen][NMeR]SDDL[Pen]WE[dK]-NH2; disulfide 1-7) has an IC50 (rh integrin α4β7) of 1000 to 10000 nM and a half-life at 22 μM [1] of over 3 h.
`CC(=O)N[C@@H]1C(=O)N(C)[C@@H](CCCNC(=N)N)C(=O)N[C@H](CC(=O)O)C(=O)N[C@@H](CC(=O)O)C(=O)N[C@@H]([C@@H](C)O)C(=O)N[C@@H](CC(C)C)C(=O)N[C@H](C(=O)N[C@@H](Cc2c[nH]c3ccccc23)C(=O)N[C@@H](CCC(=O)O)C(=O)N[C@H](CCCCN)C(N)=O)C(C)(C)SSC1(C)C` [compound 48] (Ac-[Pen][NMeR][dD]DTL[Pen]WE[dK]-NH2; disulfide 1-7) showed an IC50 (rh integrin α4β7) of 1000 to 10000 nM and a half-life at 22 μM [1] of over 3 h.
Work on `CC(=O)N[C@@H]1C(=O)N(C)[C@@H](CCCNC(=N)N)C(=O)N[C@@H](CO)C(=O)N[C@@H](CC(=O)O)C(=O)N[C@@H]([C@@H](C)O)C(=O)N[C@@H](CC(C)C)C(=O)N[C@H](C(=O)N[C@@H](Cc2c[nH]c3ccccc23)C(=O)N[C@@H](CCC(=O)O)C(=O)N2CCC[C@H]2C(=O)N[C@H](CCCCN)C(N)=O)C(C)(C)SSC1(C)C` [compound 49] (Ac-[Pen][NMeR]SDTL[Pen]WEP[dK]-NH2; disulfide 1-7) yielded an IC50 (rh integrin α4β7) of 10 to 25 nM and a half-life at 22 μM [1] of over 3 h.
Work on `CC(=O)N[C@@H]1C(=O)N(C)[C@@H](CCCNC(=N)N)C(=O)N[C@@H](CO)C(=O)N[C@@H](CC(=O)O)C(=O)N[C@@H]([C@@H](C)O)C(=O)N[C@@H](CC(C)C)C(=O)N[C@H](C(=O)N[C@@H](Cc2ccc3ccccc3c2)C(=O)N[C@@H](CCc2ccccc2)C(=O)N[C@H](CCCCN)C(N)=O)C(C)(C)SSC1(C)C` [compound 50] (Ac-[Pen][NMeR]SDTL[Pen][2Nal][hPhe][dK]-NH2; disulfide 1-7) yielded an IC50 (rh integrin α4β7) of 10 to 25 nM and a half-life at 22 μM [1] of 1.73 h.
With `CC(=O)N[C@@H]1C(=O)N(C)[C@@H](CCCNC(=N)N)C(=O)N[C@@H](CO)C(=O)N[C@@H](CC(=O)O)C(=O)N[C@@H]([C@@H](C)O)C(=O)N[C@@H](CC(C)C)C(=O)N[C@H](C(=O)N[C@@H](Cc2c[nH]c3ccccc23)C(=O)NC2(C(=O)N[C@H](CCCCN)C(N)=O)Cc3ccccc3C2)C(C)(C)SSC1(C)C` [compound 51] (Ac-[Pen][NMeR]SDTL[Pen]W[Aic][dK]-NH2; disulfide 1-7) the IC50 (rh integrin α4β7) was 25 to 50 nM and the half-life at 22 μM [1] was 3 h.
Compound `COC(=O)C[C@@H]1NC(=O)[C@H](CO)NC(=O)[C@H](CCCNC(=N)N)N(C)C(=O)[C@@H](NC(C)=O)C(C)(C)SSC(C)(C)[C@@H](C(=O)N[C@@H](Cc2c[nH]c3ccccc23)C(=O)N[C@@H](CCC(=O)O)C(=O)N[C@H](CCCCNC(=O)COCC(=O)NCCCC[C@@H](NC(=O)[C@H](CCC(=O)O)NC(=O)[C@H](Cc2c[nH]c3ccccc23)NC(=O)[C@H]2NC(=O)[C@H](CC(C)C)NC(=O)[C@H]([C@@H](C)O)NC(=O)[C@H](CC(=O)OC)NC(=O)[C@H](CO)NC(=O)[C@H](CCCNC(=N)N)N(C)C(=O)[C@@H](NC(C)=O)C(C)(C)SSC2(C)C)C(N)=O)C(N)=O)NC(=O)[C@H](CC(C)C)NC(=O)[C@H]([C@@H](C)O)NC1=O` [compound 73] (I: Ac-[Pen][NMeR]SD(OMe)TL[Pen]WE[dK]-NH2 / II: Ac-[Pen][NMeR]SD(OMe)TL[Pen]WE[dK]-NH2; disulfide I:1-I:7, II:1-II:7; linker I:10-II:10 via Diglycolyl) has an IC50 (rh integrin α4β7) of under 10 nM and an IC50 (α4β7) of under 10 nM.
`CC(=O)N[C@@H]1C(=O)N(C)[C@@H](CCCNC(=N)N)C(=O)N[C@@H](CO)C(=O)N[C@@H](CC(=O)O)C(=O)N[C@@H]([C@@H](C)O)C(=O)N[C@@H](CC(C)C)C(=O)N[C@H](C(=O)N[C@@H](Cc2ccc3ccccc3c2)C(=O)N[C@H](CCCCN)C(N)=O)C(C)(C)SSC1(C)C` [compound 88] (Ac-[Pen][NMeR]SDTL[Pen][2Nal][dK]-NH2; disulfide 1-7) showed an IC50 (rh integrin α4β7) of 10 to 25 nM.
For `CC(=O)N[C@@H]1C(=O)N(C)[C@@H](CCCNC(=N)N)C(=O)N[C@@H](CO)C(=O)N[C@@H](CC(=O)O)C(=O)N[C@@H]([C@@H](C)O)C(=O)N[C@@H](CC(C)C)C(=O)N[C@H](C(=O)N2Cc3ccccc3C[C@H]2C(=O)N[C@H](CCC(=O)O)C(=O)N[C@H](CCCCN)C(N)=O)CSSC1(C)C` [compound 89] (Ac-[Pen][NMeR]SDTLC[Tic][dE][dK]-NH2; disulfide 1-7), the IC50 (rh integrin α4β7) was 25 to 50 nM.
With `CC(=O)N[C@@H]1C(=O)N(C)[C@@H](CCCNC(=N)N)C(=O)N[C@@H](CO)C(=O)N[C@@H](CC(=O)O)C(=O)N[C@@H]([C@@H](C)O)C(=O)N[C@@H](CC(C)C)C(=O)N[C@H](C(=O)N[C@@H](Cc2ccc3ccccc3c2)C(=O)N[C@@H](CCC(=O)O)C(=O)N(C)[C@@H](CCCCNC(=O)COCC(=O)NCCCC[C@@H](C(N)=O)N(C)C(=O)[C@H](CCC(=O)O)NC(=O)[C@H](Cc2ccc3ccccc3c2)NC(=O)[C@H]2NC(=O)[C@H](CC(C)C)NC(=O)[C@H]([C@@H](C)O)NC(=O)[C@H](CC(=O)O)NC(=O)[C@H](CO)NC(=O)[C@H](CCCNC(=N)N)N(C)C(=O)[C@@H](NC(C)=O)C(C)(C)SSC2(C)C)C(N)=O)C(C)(C)SSC1(C)C` [compound 138] (I: Ac-[Pen][NMeR]SDTL[Pen][2Nal]E[NMeK]-NH2 / II: Ac-[Pen][NMeR]SDTL[Pen][2Nal]E[NMeK]-NH2; disulfide I:1-I:7, II:1-II:7; linker I:10-II:10 via Diglycolyl) the IC50 (rh integrin α4β7) was 10 to 25 nM and the IC50 (α4β7) was 10 to 25 nM.
